Laboratory results taken from PMC9311615 (Antibiotics, 2022).
Read-outs that look alike come from different tables or passages of the source.

Experiments:
E. faecium = settings: Monte-Carlo on Dvorchik's pop-PK model, cited from earlier work
[1] = Population pharmacokinetic model (NONMEM), one-compartment first-order elimination
Procedure: Basic model building was performed using the building subset (n = 94), through PsN-controlled NONMEM iterative runs. One- and two- compartment models with first-order elimination, parametrized in terms of drug Cl and Vd, were evaluated. Residual error was described using additive, proportional or mixed error models. Models were compared based on the following aspects: (1) minimization of the OFV; (2) standard errors and confidence intervals of parameter estimates, calculated for each model through NONMEM correlation matrices and PsN-controlled bootstrap method; (3) goodness-of-fit plots generated with Xpose4 [24]; (4) plausibility of parameter estimates, according to the literature.
The preliminary covariate screening was performed through several Xpose4 functions, which are as follows: (1) graphic analysis of covariate-covariate plots to exclude redundancies, (2) graphic analysis of parameters-covariate plots, (3) generalized additive model (GAM) to search for the covariates that minimized the most of Akaike’s information criterion (AIC) value. Covariate model building was based on the least absolute shrinkage and selection operator method, which is automated within the “lasso” Perl command [17]. Further insights on covariates effect were collected with the same methods, after the second patient enrollment round.
The final model was validated both with internal and external approaches. The former one was performed through the following steps: (1) a visual predictive check (VPC), namely a concentration-time plot, where the mean and 5th and 95th percentile of real data are superimposed to the respective descriptive measures of simulated concentrations; (2) a numeric predictive check, which assesses abnormal trends in the DV/iPRED ratio for different statistical confidence intervals; (3) a bootstrap of the model, which calculates the bias between final parameters estimates and the means estimated through 1500 further runs of the same model, based on a random resampling from the same dataset; (4) calculation of η- and ε-shrinkage, as described in the following equations:(3) ηshrink=1−stdev(ηest)/ω (4) εshrink=1−stdev(IWRES)

[2] = Daptomycin plasma concentrations, routine TDM, HPLC-UV; settings: for Daptomycin plasma concentration 1 h, mean ± SD: peak; for Daptomycin plasma concentration 23.5 h, mean ± SD: trough
Procedure: This work was conducted in the framework of DAPTOLIN, an observational retrospective study approved by the Ethics Committee of the Azienda OspedalieroUniversitaria Pisana (AOUP protocol number 55945). […] Patients with incomplete medical records were excluded. […] After the first round, in which 134 patients were included, the dataset was split in 2 subsets through an iterative stratified sampling procedure [21]. The covariates considered for subset balancing were sex, weight, CrCl (calculated through the Cockroft-Gault equation), serum albumin and serum total protein concentration. During the second round, 22 further patients were included, to reach a total of 156 included patients.
Venous blood samples were collected in heparinized tubes and centrifuged immediately after. The extracted plasma was then stored at −20 °C until subsequent analysis.
The quantification technique was based on the novel HPLC-UV method developed and described by Luci and colleagues [22]. Briefly, plasma samples were firstly purified using a 95:5 v/v mixture of acetonitrile and 85% H3PO4, to induce protein precipitation. Samples were then vortexed for 30 s and centrifuged at 7700 rpm for 15 min. […] The mobile phase, composed of a 54:46 v/v mixture of 20 mM KH2PO4 and acetonitrile at pH 3.2, was pumped in the HPLC system at a 1 mL/min flowrate, while the chromatographic column temperature was kept at 35 °C. These conditions allowed the optimal separation of analytes in a 10 min-long chromatographic run.

[3] = daily dose 6–7 mg/kg, n = 96 patients
[4] = daily dose 8–9 mg/kg, n = 32 patients
[5] = daily dose 10–11 mg/kg, n = 8 patients

CCCCCCCCCC(=O)N[C@@H](Cc1c[nH]c2ccccc12)C(=O)N[C@H](CC(N)=O)C(=O)N[C@@H](CC(=O)O)C(=O)N[C@@H]1C(=O)NCC(=O)N[C@@H](CCCN)C(=O)N[C@@H](CC(=O)O)C(=O)N[C@H](C)C(=O)N[C@@H](CC(=O)O)C(=O)NCC(=O)N[C@H](CO)C(=O)N[C@@H]([C@H](C)CC(=O)O)C(=O)N[C@@H](CC(=O)c2ccccc2N)C(=O)O[C@@H]1C [Daptomycin]
CFR against E. faecium reported by Turnidge et al. (E. faecium; 8 mg/kg × MIC 2): 80.4%
CFR against E. faecium reported by Turnidge et al. (E. faecium; 10 mg/kg × MIC 2): 92.9%
Cl (θ1), bootstrap mean ([1]; 1500-samples bootstrap): 0.631 L/h
V (θ2), bootstrap mean ([1]; 1500-samples bootstrap): 10.935 L
kCrCl (θ5), bootstrap mean ([1]; 1500-samples bootstrap): 0.128
kSex (θ6), bootstrap mean ([1]; 1500-samples bootstrap): −2.484
Vd ([1]; human, in vivo): 10.9 L
clearance ([1]; human, in vivo): 10.6 mL/min
Daptomycin plasma concentration 1 h, mean ± SD ([2]; daily dose 12 mg/kg, n = 4 patients): 80.0 ± 25.7
Daptomycin plasma concentration 23.5 h, mean ± SD ([2]; daily dose 4–5 mg/kg, n = 15 patients): 11.4 ± 8.7
Daptomycin plasma concentration 1 h, mean ± SD [2, 3]: 59.3 ± 18.0
Daptomycin plasma concentration 23.5 h, mean ± SD [2, 3]: 17.8 ± 11.0
Daptomycin plasma concentration 1 h, mean ± SD [2, 4]: 74.4 ± 51.3
Daptomycin plasma concentration 23.5 h, mean ± SD [2, 4]: 15.5 ± 10.7
Daptomycin plasma concentration 1 h, mean ± SD [2, 5]: 69.8 ± 21.7
Daptomycin plasma concentration 23.5 h, mean ± SD [2, 5]: 25.4 ± 14.1
